{"source": "ChEMBL document CHEMBL5728747", "about": "“Benzimidazoles and indoles as taro inhibitors” (2021)", "test": "TarO Biochemical Enzymatic Assay: The TarO biochemical enzymatic assay is a liquid chromatography-mass spectroscopy (LC-MS) based end point assay that measures C55-P-P-GlcNAc (LIPID III) production. The TarO biochemical enzymatic assay was performed in a 384-well microtiter plate (Labcyte) with a reaction volume of 20 μl. The reaction mix contained 0.1 μgs/μl of TarO membrane preparation derived from MRSA COL (lysostaphin/lysozyme treated, centrifuged at 40K rpm, and re-suspended in 50 mM Tris pH 7.5, 10 mM MgCl2), 1500 μM UDP-GlcNAc, ×75 μM C55-P substrates in 83 mM Tris pH 8.0, 6.7 mM MgCl2, 6 mM CHAPS, and 8.3% DMSO buffer. The enzyme reactions were quenched by extraction in 40 μl of 1-pentanol containing 0.04 μM 15C C55-PP-GlcNAc, which was used as an internal standard. A 10 μl volume of the quenched reaction mixture (pH≈3) from each well was injected onto a reversed-phase column (C4, 5 μm, 2.1×50 mm, Thermo Scientific Biobacis-4) and eluted using a NH4Ac/H2O/MeOH gradient (solvent A: 10 mM NH4Ac in water, pH 5.6; solvent B: NH4Ac (1 M)-Isopropanol (1:90, v/v, pH 5.6). The HPLC conditions were as follows: 15% solvent B for 15 seconds followed by a gradient to 90% solvent B in 90 seconds; then solvent B was kept at 95% for 10 seconds followed by a gradient to 8% solvent B in 0.1 minute. The column was then equilibrated at 15% B for 1 minute before the next injection. The flow rate was kept constant at 600 μl/minute. Mass spectrometric detection was carried out in the negative-ion mode using selected reaction monitoring (SRM). Typical mass spectrometric conditions were as follows: heated capillary temperature, 210° C.; spray voltage, 2500 V; desolvation gas (N2), 40 l/h; auxiliary gas (N2), 35 l/h. Selected ion current (SIC) chromatograms of C55-PP-GlcNAc and internal standard 15C C55-PP-GlcNAc were plotted and integrated using LCQuan incorporated in Xcalibur software (ThermoFinnigan). The linearity of C55-PP-GlcNAc concentration versus mass spectrometric signal (AC55-PP-GlcNAc/A15C-C55-PP-GlcNAc) was determined with purified C55-PP-GlcNAc. The IC50 values were calculated using the nonlinear regression analysis (sigmoidal dose response fit allowing for a variable slope) of percent inhibition data with minimum and maximum values set to 0 and 100 percent.", "note": "pIC50: −log10 of the molar value. Where “and” joins values, the source holds several entries; their conditions need not be identical. Identical values can stand only once."}
{"compound": "CCN(C(=O)CCn1c(-c2ccc(C(=O)OC)cc2)nc2ccccc21)C1CCCCC1", "values": [{"measurement": "pIC50", "value": 6.89}]}
{"compound": "CCN(C(=O)CCn1c2cc(CO)ccc2nc1[C@H]1CC[C@H](CC)CC1)C1CCCCC1", "values": [{"measurement": "pIC50", "value": 6.92}]}
{"compound": "CCN(C(=O)CCn1c2ccc(F)cc2nc1[C@H]1CC[C@H](CC)CC1)C1CCCCC1", "values": [{"measurement": "pIC50", "value": 7.40}]}
{"compound": "CCN(C(=O)CCn1c(C2CCCN(C(=O)OC(C)(C)C)C2)nc2cc(F)ccc21)C1CCCCC1", "note": "(centres undefined)", "values": [{"measurement": "pIC50", "value": "7.22 and 6.92"}]}
{"compound": "CCN(C(=O)CCn1c2cccc(F)c2nc1[C@H]1CC[C@H](CC)CC1)C1CCCCC1", "values": [{"measurement": "pIC50", "value": 7.52}]}
{"compound": "CCN(C(=O)CCn1c(N2CCC(C)CC2)nc2ccccc21)C1CCCCC1", "values": [{"measurement": "pIC50", "value": 6.68}]}
{"compound": "CCN(C(=O)CCn1c2ccc(Br)cc2nc1[C@H]1CC[C@H](CC)CC1)C1CCCCC1", "values": [{"measurement": "pIC50", "value": 8.00}]}
{"compound": "CCN(C(=O)CCn1c2c(F)cccc2nc1[C@H]1CC[C@H](CC)CC1)C1CCCCC1", "values": [{"measurement": "pIC50", "value": 7.40}]}
{"compound": "CCN(C(=O)CCn1c2cc(-c3cnn(C)c3)ccc2nc1[C@H]1CC[C@H](CC)CC1)C1CCCCC1", "values": [{"measurement": "pIC50", "value": 7.30}]}
{"compound": "CCN(C(=O)CCn1c2cc(Br)ccc2nc1[C@H]1CC[C@H](CC)CC1)C1CCCCC1", "values": [{"measurement": "pIC50", "value": 7.52}]}
{"compound": "CCN(C(=O)CCn1c(-c2ccc(OCC(F)(F)F)cc2)nc2ccccc21)C1CCCCC1", "values": [{"measurement": "pIC50", "value": 7.40}]}
{"compound": "CCN(C(=O)CCn1c(C2CCCCC2)nc2ccccc21)C1CCCCC1", "values": [{"measurement": "pIC50", "value": 7.15}]}
{"compound": "CCN(C(=O)CCn1c2cc(F)ccc2nc1[C@H]1CC[C@H](CC)CC1)C1CCCCC1", "values": [{"measurement": "pIC50", "value": 7.70}]}
{"compound": "CCOC(=O)N1CCCC(c2nc3cc(F)ccc3n2CCC(=O)N(CC)C2CCCCC2)C1", "note": "(centres undefined)", "values": [{"measurement": "pIC50", "value": "6.96 and 6.54"}]}
{"compound": "CN(C(=O)CCn1c(C2CCCCC2)nc2ccccc21)C1CCCCC1", "values": [{"measurement": "pIC50", "value": 6.55}]}
{"compound": "CCN(C(=O)CCn1c(N2CCC(C(C)(C)C)CC2)nc2ccccc21)C1CCCCC1", "values": [{"measurement": "pIC50", "value": 8.00}]}
{"compound": "CCN(C(=O)CCn1c(-c2ccc(-n3ccnn3)cc2)nc2ccccc21)C1CCCCC1", "values": [{"measurement": "pIC50", "value": 5.42}]}
{"compound": "CC1(C)[C@@H]2CC[C@@]1(C)[C@H](NC(=O)CCn1c(C3CCCCC3)nc3ccccc31)C2", "values": [{"measurement": "pIC50", "value": 6.70}]}
{"compound": "CCN(C(=O)CCn1c2cccc(C[C@H]3CCOC3)c2nc1[C@H]1CC[C@H](CC)CC1)C1CCCCC1", "values": [{"measurement": "pIC50", "value": 6.28}]}
{"compound": "CCN(C(=O)CCn1c(N2CCC(F)(F)CC2)nc2ccccc21)C1CCCCC1", "values": [{"measurement": "pIC50", "value": 6.66}]}
{"compound": "CCN(C(=O)CCn1c2ccc(OC)cc2nc1[C@H]1CC[C@H](CC)CC1)C1CCCCC1", "values": [{"measurement": "pIC50", "value": 6.82}]}
{"compound": "CCN(C(=O)CCn1c2ncccc2nc1[C@H]1CC[C@H](CC)CC1)C1CCCCC1", "values": [{"measurement": "pIC50", "value": 6.52}]}
{"compound": "CCN(C(=O)CCn1c2cccc(N3CCOCC3)c2nc1[C@H]1CC[C@H](CC)CC1)C1CCCCC1", "values": [{"measurement": "pIC50", "value": 5.46}]}
{"compound": "CCc1nsc(N2CCCC(c3nc4ccccc4n3CCC(=O)N(CC)C3CCCCC3)C2)n1", "note": "(centres undefined)", "values": [{"measurement": "pIC50", "value": 7.10}]}
{"compound": "CCCOC(=O)N1CCCC(c2nc3ccccc3n2CCC(=O)N(CC)C2CCCCC2)C1", "note": "(centres undefined)", "values": [{"measurement": "pIC50", "value": 6.82}]}
{"compound": "CCN(C(=O)CCn1c2cc(C[C@H]3CCOC3)ccc2nc1[C@H]1CC[C@H](CC)CC1)C1CCCCC1", "values": [{"measurement": "pIC50", "value": 6.42}]}
{"compound": "CCN(C(=O)CCn1c2ccncc2nc1[C@H]1CC[C@H](CC)CC1)C1CCCCC1", "values": [{"measurement": "pIC50", "value": 6.82}]}
{"compound": "CCN(C(=O)CCn1c2cc(CN)ccc2nc1[C@H]1CC[C@H](CC)CC1)C1CCCCC1", "values": [{"measurement": "pIC50", "value": 5.14}]}
{"compound": "CC(C)(C)OC(=O)NCC1CCC(c2nc3ccccc3n2CCC(=O)NC2C[C@H]3CC[C@]2(C)C3(C)C)CC1", "note": "(some centres undefined)", "values": [{"measurement": "pIC50", "value": 5.87}]}
{"compound": "CCOc1ccc(-c2nc3ccccc3n2CCC(=O)N(CC)C2CCCCC2)cn1", "values": [{"measurement": "pIC50", "value": 6.62}]}
{"compound": "CCN(C(=O)CCn1c(C2CCCN(C(=O)OC(C)C)C2)nc2ccccc21)C1CCCCC1", "note": "(centres undefined)", "values": [{"measurement": "pIC50", "value": 6.59}]}
{"compound": "CCCCOC(=O)N1CCCC(c2nc3ccccc3n2CCC(=O)N(CC)C2CCCCC2)C1", "note": "(centres undefined)", "values": [{"measurement": "pIC50", "value": 7.15}]}
{"compound": "CCOC(=O)N1CCCC(c2nc3ccc(F)cc3n2CCC(=O)N(CC)C2CCCCC2)C1", "note": "(centres undefined)", "values": [{"measurement": "pIC50", "value": 5.96}]}
{"compound": "CCN(C(=O)CCn1c2cc(C#N)ccc2nc1[C@H]1CC[C@H](CC)CC1)C1CCCCC1", "values": [{"measurement": "pIC50", "value": 6.10}]}
{"compound": "CCN(C(=O)CCn1c(CN2CCC(C(C)(C)C)CC2)nc2ccccc21)C1CCCCC1", "values": [{"measurement": "pIC50", "value": 7.00}]}
{"compound": "CCN(C(=O)CCn1c(C2CCC(C)N(c3cccc(OC)n3)C2)nc2ccccc21)C1CCCCC1", "note": "(centres undefined)", "values": [{"measurement": "pIC50", "value": 7.70}]}
{"compound": "CC1CCN(C(=O)CCn2c(C3CCCCC3)nc3ccccc32)CC1", "values": [{"measurement": "pIC50", "value": 5.63}]}
{"compound": "CCC1CCN(Cc2nc3cc(C)ccc3n2CCC(=O)N(CC)C2CCCCC2)CC1", "values": [{"measurement": "pIC50", "value": 5.98}]}
{"compound": "CCC1CCN(Cc2nc3ccccc3n2CCC(=O)N(CC)C2CCCCC2)CC1", "values": [{"measurement": "pIC50", "value": 6.68}]}
{"compound": "CCN(C(=O)CCn1c(C2CCCN(c3nccc(OC)n3)C2)nc2ccccc21)C1CCCCC1", "note": "(centres undefined)", "values": [{"measurement": "pIC50", "value": 7.10}]}
{"compound": "CCN(C(=O)CCn1c2ccc(C#N)cc2nc1[C@H]1CC[C@H](CC)CC1)C1CCCCC1", "values": [{"measurement": "pIC50", "value": 6.38}]}
{"compound": "CCN(C(=O)CCn1c2cnccc2nc1[C@H]1CC[C@H](CC)CC1)C1CCCCC1", "values": [{"measurement": "pIC50", "value": 6.08}]}
{"compound": "CCN(C(=O)CCn1c(C2CCC(C)N(c3nccc(OC)n3)C2)nc2ccccc21)C1CCCCC1", "note": "(centres undefined)", "values": [{"measurement": "pIC50", "value": 6.85}]}
{"compound": "CCN(C(=O)CCn1c2cc(CN3CC(F)(F)C3)ccc2nc1[C@H]1CC[C@H](CC)CC1)C1CCCCC1", "values": [{"measurement": "pIC50", "value": 5.75}]}
{"compound": "CCN(C(=O)CCn1c2ccc(C(F)(F)F)cc2nc1[C@H]1CC[C@H](CC)CC1)C1CCCCC1", "values": [{"measurement": "pIC50", "value": 8.00}]}
{"compound": "CCN(C(=O)CCn1c2cccc(C(F)F)c2nc1[C@H]1CC[C@H](C)CC1)C1CCCCC1", "values": [{"measurement": "pIC50", "value": 6.44}]}
{"compound": "CCN(C(=O)CCn1c(C2CCCN(c3cccc(OC)n3)C2)nc2ccccc21)C1CCCCC1", "note": "(centres undefined)", "values": [{"measurement": "pIC50", "value": 8.00}]}
{"compound": "CCN(C(=O)CCn1c(C2CCN(C(=O)OC(C)(C)C)C2)nc2cc(F)ccc21)C1CCCCC1", "note": "(centres undefined)", "values": [{"measurement": "pIC50", "value": 6.40}]}
{"compound": "CCN(C(=O)CCn1c(N2CCC(C(F)F)CC2)nc2ccccc21)C1CCCCC1", "values": [{"measurement": "pIC50", "value": 6.77}]}
{"compound": "CCN(C(=O)CCn1c2cc(CN3CCN(CC(F)(F)F)CC3)ccc2nc1[C@H]1CC[C@H](CC)CC1)C1CCCCC1", "values": [{"measurement": "pIC50", "value": 5.83}]}
{"compound": "CCN(C(=O)CCn1c2cccnc2nc1[C@H]1CC[C@H](CC)CC1)C1CCCCC1", "values": [{"measurement": "pIC50", "value": 6.18}]}
{"compound": "CCN(C(=O)CCn1c2ccc(CO)cc2nc1[C@H]1CC[C@H](CC)CC1)C1CCCCC1", "values": [{"measurement": "pIC50", "value": 6.11}]}
{"compound": "CCCOC(=O)N1CC(c2nc3ccccc3n2CCC(=O)N(CC)C2CCCCC2)CCC1C", "note": "(centres undefined)", "values": [{"measurement": "pIC50", "value": 6.96}]}
{"compound": "CCN(C(=O)CCn1c(C2CCCN(c3ccccn3)C2)nc2ccccc21)C1CCCCC1", "note": "(centres undefined)", "values": [{"measurement": "pIC50", "value": 7.05}]}
{"compound": "CCN(C(=O)CCn1c(N2CCC[C@H](NC(=O)OC(C)(C)C)C2)nc2ccccc21)C1CCCCC1", "values": [{"measurement": "pIC50", "value": 5.10}]}
{"compound": "CC(C)(C)OC(=O)N1CCC(c2nc3ccccc3n2CCC(=O)NC2C[C@H]3CC[C@]2(C)C3(C)C)C1", "note": "(some centres undefined)", "values": [{"measurement": "pIC50", "value": 5.47}]}
{"compound": "CCN(C(=O)CCn1c2ccc(C3CC3)cc2nc1[C@H]1CC[C@H](CC)CC1)C1CCCCC1", "values": [{"measurement": "pIC50", "value": 6.89}]}
{"compound": "CCN(C(=O)CCn1c(C2CCCN(c3nccc(C)n3)C2)nc2ccccc21)C1CCCCC1", "note": "(centres undefined)", "values": [{"measurement": "pIC50", "value": 6.64}]}
{"compound": "CC1(C)[C@@H]2CC[C@@]1(C)[C@H](NC(=O)CCn1c3ccccc3nc1[C@H]1CC[C@@H](C(C)(C)C)CC1)C2", "values": [{"measurement": "pIC50", "value": 7.22}]}
